In patent publication US8449788B2, “Leather finishing compositions comprising dioxolane derivatives” (Rhodia Poliamida e Especialidades Ltda, priority 2009, dated 2013):
Like-named read-outs stand apart in the source and are kept apart here.

How the values were obtained:
[1] = Solubilization of a dye-metal complex; type: physicochemical
Method: Solketal was tested to solubilize a dye-metal complex.

[2] = cited from earlier work
[3] = test system: mouse; conditions: cited from earlier work
[4] = cited from earlier work; remark: listed apart in the source
[5] = cited from earlier work; remark: listed apart in the source

## CC1(C)OCC(CO)O1 (stereo not drawn) [Solketal, 2,2-dimethyl-1,3-dioxolane-4-methanol]
[1]
  Performance as solvent for dye-metal complex: good compared to diacetone alcohol and methoxy propanol, and less effective compared to ethyldiglycol, ethylglycol, butyldiglycol and butylglycol
[1]; listed as solketal
  Performance as solvent for dye-metal complex: average
[2]
  Solubility in water at 20° C.: miscible
[3]
  LD50 (oral/mouse mg/kg): 7000 mg/kg
[4]
  Reversion in slightly acid pH (biodegradability): may revert into acetone and glycerin
[5]
  Acute oral toxicity: 7.00
